How the values were obtained:
Type in all cases: biochemical
human Cathepsin S = human Cathepsin S (Homo sapiens (Human), UniProt P25774); experiment: Cathepsin enzyme inhibition assay (fluorogenic peptide substrate), Cat S; settings: enzyme 1 nM, substrate Z-Val-Val-Arg-AMC 20 μM, pH 6.5
Outline: (§1)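 Fluorogenic cleavage assay run separately on human and mouse enzymes, each at 1 nM, in 100 mM potassium phosphate pH 6.5 with 5 mM EDTA, 5 mM DTT and 0.001% Triton X-100. Reaction started with 20 μM Z-Val-Val-Arg-AMC, or Z-Leu-Arg-AMC for Cat K; AMC read at ex 360/em 465 nm. IC50 calculated by standard methods.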

human Cat L = human Cat L (Homo sapiens (Human), UniProt P07711); experiment: Cathepsin enzyme inhibition assay (fluorogenic peptide substrate), Cat L; settings: enzyme 1 nM, substrate Z-Val-Val-Arg-AMC 20 μM, pH 6.5
Outline: as §1

human Cat K = human Cat K (Homo sapiens (Human), UniProt P43235); experiment: Cathepsin enzyme inhibition assay (fluorogenic peptide substrate), Cat K; settings: enzyme 1 nM, substrate Z-Leu-Arg-AMC 20 μM, pH 6.5
Outline: as §1

human Cat B = human Cat B (Homo sapiens (Human), UniProt P07858); experiment: Cathepsin enzyme inhibition assay (fluorogenic peptide substrate), Cat B; settings: enzyme 1 nM, substrate Z-Val-Val-Arg-AMC 20 μM, pH 6.5
Outline: as §1

Sequence of human Cat L (P07711 114-333): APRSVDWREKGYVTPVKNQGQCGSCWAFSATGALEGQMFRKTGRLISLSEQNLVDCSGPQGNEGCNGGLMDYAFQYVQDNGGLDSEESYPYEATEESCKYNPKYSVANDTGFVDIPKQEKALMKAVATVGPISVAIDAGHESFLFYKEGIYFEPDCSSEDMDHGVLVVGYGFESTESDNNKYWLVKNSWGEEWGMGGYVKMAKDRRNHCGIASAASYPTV
Sequence of human Cathepsin S (P25774 115-331): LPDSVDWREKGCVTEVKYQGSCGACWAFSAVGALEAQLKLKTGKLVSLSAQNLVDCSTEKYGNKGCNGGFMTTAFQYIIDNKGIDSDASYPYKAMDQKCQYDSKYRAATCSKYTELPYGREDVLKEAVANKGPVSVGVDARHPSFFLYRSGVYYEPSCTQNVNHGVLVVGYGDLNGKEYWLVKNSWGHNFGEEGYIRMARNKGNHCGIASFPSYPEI
Sequence of human Cat K (P43235 115-329): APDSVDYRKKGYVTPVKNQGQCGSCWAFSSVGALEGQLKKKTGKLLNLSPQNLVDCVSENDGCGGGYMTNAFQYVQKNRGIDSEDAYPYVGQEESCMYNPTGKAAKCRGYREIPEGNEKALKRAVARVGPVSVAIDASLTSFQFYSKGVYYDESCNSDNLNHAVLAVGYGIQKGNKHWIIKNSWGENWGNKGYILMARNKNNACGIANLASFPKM

Row | SMILES | IC50 (human Cathepsin S) | IC50 (human Cat L) | IC50 (human Cat K) | IC50 (human Cat B)
1 | CC[C@H](NC(=O)[C@@H]1C[C@@H](S(=O)(=O)c2ccccc2Cl)CN1C(=O)C1(c2ccc(Cl)cc2)CC1)C(=O)C(=O)NCC(C)C [Example 55, (2S,4R)-1-(1-(4-chlorophenyl)cyclopropanecarbonyl)-4-(2-chlorophenylsulfonyl)-N—((S)-1-(isobutylamino)-1,2-dioxopentan-3-yl)pyrrolidine-2-carboxamide] | 0.876 nM | 2.6 nM | 56.5 nM | 61.6 nM
2 | CCC[C@H](NC(=O)[C@@H]1C[C@@H](S(=O)(=O)c2ccc(N3CCOCC3)cc2Cl)CN1C(=O)C1(c2ccc(Cl)cc2)CC1)C(=O)C(=O)NC1CC1 [Example 57, (2S,4R)-4-(2-chloro-4-morpholinophenylsulfonyl)-1-(1-(4-chlorophenyl)cyclopropanecarbonyl)-N—((S)-1-(cyclopropylamino)-1,2-dioxohexan-3-yl)pyrrolidine-2-carboxamide] | 3.33 nM | 24.9 nM | 75 nM | 93.2 nM
3 | CCCCNC(=O)C(=O)[C@H](CCC)NC(=O)[C@@H]1C[C@@H](S(=O)(=O)c2ccccc2Cl)CN1C(=O)C1(c2ncc(Cl)cc2F)CC1 [Example 61, (2S,4R)—N—((S)-1-(butylamino)-1,2-dioxohexan-3-yl)-1-(1-(5-chloro-3-fluoropyridin-2-yl)cyclopropanecarbonyl)-4-(2-chlorophenylsulfonyl)pyrrolidine-2-carboxamide] | 2.93 nM | 6.2 nM | 106 nM | 172 nM
4 | CCC[C@H](NC(=O)[C@@H]1C[C@@H](S(=O)(=O)c2ccccc2Cl)CN1C(=O)C1(c2ncc(Cl)cc2F)CC1)C(=O)C(=O)NCc1ccccc1 [Example 62, (2S,4R)—N—((S)-1-(benzylamino)-1,2-dioxohexan-3-yl)-1-(1-(5-chloro-3-fluoropyridin-2-yl)cyclopropanecarbonyl)-4-(2-chlorophenylsulfonyl)pyrrolidine-2-carboxamide] | 2.35 nM | 6 nM | 41.2 nM | 120 nM

More lines, in order of falling IC50 (human Cathepsin S), values ahead:

Row | IC50 (human Cathepsin S) | IC50 (human Cat L) | IC50 (human Cat K) | IC50 (human Cat B) | SMILES
5 | 2.87 nM | 6.1 nM | 144 nM | 354 nM | CCCCNC(=O)C(=O)[C@H](CC)NC(=O)[C@@H]1C[C@@H](S(=O)(=O)c2ccccc2Cl)CN1C(=O)C1(c2ncc(Cl)cc2F)CC1 [Example 60, (2S,4R)—N—((S)-1-(butylamino)-1,2-dioxopentan-3-yl)-1-(1-(5-chloro-3-fluoropyridin-2-yl)cyclopropanecarbonyl)-4-(2-chlorophenylsulfonyl)pyrrolidine-2-carboxamide]
6 | 2.61 nM | 6.4 nM | 141 nM | 518 nM | CC(C)C[C@H](NC(=O)[C@@H]1C[C@@H](S(=O)(=O)c2ccccc2Cl)CN1C(=O)C1(c2ncc(Cl)cc2F)CC1)C(=O)C(=O)NC1CC1 [Example 59, (2S,4R)-1-(1-(5-chloro-3-fluoropyridin-2-yl)cyclopropanecarbonyl)-4-(2-chlorophenylsulfonyl)-N—((S)-1-(cyclopropylamino)-5-methyl-1,2-dioxohexan-3-yl)pyrrolidine-2-carboxamide]
7 | 2.57 nM | 20.6 nM | 65.4 nM | 101 nM | CC[C@H](NC(=O)[C@@H]1C[C@@H](S(=O)(=O)c2ccc(N3CCOCC3)cc2Cl)CN1C(=O)C1(c2ccc(Cl)cc2)CC1)C(=O)C(=O)NC1CC1 [Example 56, (2S,4R)-4-(2-chloro-4-morpholinophenylsulfonyl)-1-(1-(4-chlorophenyl)cyclopropanecarbonyl)-N—((S)-1-(cyclopropylamino)-1,2-dioxopentan-3-yl)pyrrolidine-2-carboxamide]

From patent US8729061B2, “Pyrrolidine derivatives” (Hoffmann-La Roche Inc., priority 2011, dated 2014)
